Assay results published in patent publication US7101707B2, “Secondary sprouting for isolation and expansion of endothelial sprout cells and endothelial precursor cells from a mixed population and for screening substances” (Cedars-Sinai Medical Center, priority 2002, dated 2006).
“Also recorded” adds a separate entry of the source. Numbered stars: 1 amine (or outer) side, 2 acyl side, 3 side chain; on linkers, the order of the positions; unused ones are H or OH. Bridge positions count the residues as written; N and C are the ends. Square brackets hold non-standard residues; d marks the D form. Peptide text beside a SMILES is read from it. I, II: the chains in the order shown. Actinocin(9to1) = Cc1c2oc3c(C)ccc(C(=O)[*:1])c3nc-2c(C(=O)[*:2])c(N)c1=O; NMeV = CN[C@H](C(=O)O)C(C)C; Sar = CNCC(=O)O

Experiments:
[1] = system: REC; assay: Angiogenic assays taken together (proliferation, secondary sprouting, migration, tube formation); assay type: cell-based, bovine; conditions: all assays
Protocol: Treatment of REC cultures. Duplicate REC cultures on plastic (for migration) or MATRIGEL™ biological cell culture substrate with the same number of cells per dish are treated with previously established working concentrations of signaling inhibitors and/or select growth factor combinations. Treatments begin at the time of seeding the cells and medium is changed every other day. Single growth factors are used as negative controls since their modulation of TN-C effects was minimal. Working growth factor concentrations were as follows: VEGF, 1–50 ng/mL depending on the assay; PlGF, 100 ng/mL; FGF-2, 10–100 ng/mL; IGF-I, 25–100 ng/mL; PDGF-BB, 10–100 ng/mL. When used as combinations, each growth factor was supplied at 10 ng/mL for optimum synergy. The already tested inhibitors of signaling molecules (Sigma, Calbiochem, BIOMOL) were used at the following optimized doses: protein kinase A (inhibitor: H89 [25 μM]), PKC (inhibitor: calphostin C [2.5 μM]), PKC-β (inhibitor: LY379196 [50 nM]), Ca^2+/calmodulin kinase II (inhibitor: KN-93 [0.5 μM]), CK1 (inhibitor: CKI-7 [50 μM]), MEK-ERK (inhibitor: PD98059 [10 μM]), p38 MAP kinase (inhibitor: SB202190 [10 μM]), PI3 kinase (inhibitor: wortmannin [100 nM]), CK2 (inhibitors: emodin [20–25 μM] and DRB [20–25 μM]), CK2 and other kinases (inhibitor: quercetin [50 μM]); and a negative control for kinase inhibition (SB202474 [10 μM]). […]

[2] = system: bovine REC; assay: REC proliferation assay (MTS); assay type: cell-based; conditions: for effect of kinase inhibitors on proliferation: basal and growth factor-stimulated (CK2 blockers), H-7 preliminary, not shown
Protocol: (§1) REC proliferation and survival assays. 96-well plates were coated with various amounts of TN-C or vehicle. 5×10^3 cells were added to each triplicate well in low-serum REC medium with various amounts of growth factors (0.5% FCS incomplete BREC medium containing 10 ng/ml of human IGF-I, FGF-2, VEGF, PlGF and PDGF-BB [R&D Systems Inc., Minneapolis, Minn.]). Cell numbers were determined on days 4–7 using the MTS cell proliferation assay (Promega Corp.) according to manufacturer's instructions. Survival was measured in the same way using high glucose (30 mM) or chemical hypoxia (2 mM sodium azide) or serum-free medium to induce cell death. Cell numbers were determined on days 4–7 using MTS assay (Promega).

[3] = system: retinal neovascularization; assay: Oxygen-induced retinopathy in newborn mice; assay type: in vivo, mouse
[4] = system: bovine REC; assay: Secondary sprouting assay on reconstituted basement membrane matrix (MTS); assay type: cell-based; conditions: for effect of kinase inhibitors on secondary sprouting: basal and growth factor-stimulated (CK2 blockers), H-7 preliminary, not shown
Protocol: (§2) In vitro MATRIGEL™ biological cell culture substrate assay of capillary-like tube formation and secondary sprouting. […] Briefly, 50 μL of reconstituted basement membrane matrix from mouse EHS tumor (BD or GFR MATRIGEL™ biological cell culture substrate; Becton Dickinson Labware, Bedford, Mass.) were dispensed with frozen pipettes into each well of a previously frozen, sterile 96-well plate sitting on wet ice and allowed to solidify for 1 hr at room temperature or 37° C. Approximately 5×10^4 or 7.5×10^4 REC in a 100 μL volume were seeded into each triplicate well. Human recombinant or purified growth factors were added to a final concentration of 10 ng/mL (or as noted) in 0.5% FCS incomplete BREC medium. Capillary-like tube structures formed by REC on reconstituted basement membrane matrix were photographed at various intervals ranging from 12–72 hr; pictures were scanned, digitized and analyzed using image-processing software.
For the secondary sprouting assay, cells on reconstituted basement membrane matrix were seeded as above but incubated in 0.5% FCS incomplete BREC medium without any growth factors for 3 days, allowing for tube formation and collapse. On day 3, human recombinant or purified growth factors were added to a final concentration of 10 ng/mL (or as noted) in low-serum incomplete BREC medium and incubated for another 5–6 days. Digital photographs were obtained with a Kodak MDS 100 camera attached to a Leitz DM IL inverted microscope. Digitized images obtained with a Kodak MDS 100 video camera were stored on compact discs and quantified with NIH Image 1.62 software. The number of living cells in the sprouting colonies were determined using the MTS cell proliferation assay.
A good correlation was observed between the spherical volume and the number of live cells in secondary sprouting colonies (not shown). Since the latter is an easy parameter to test by using the MTS assay, it was adopted as a faster method for studying the effect of various agents on secondary sprouting.

[5] = system: REC; assay: Capillary-like tube formation on MATRIGEL; assay type: cell-based, bovine; conditions: for effect of kinase inhibitors on tube formation: basal and growth factor-stimulated (CK2 blockers), H-7 preliminary, not shown
Protocol: as §2

[6] = system: bovine REC; assay: Migration (wound healing) assay; assay type: cell-based; conditions: for effect of kinase inhibitors on migration: basal and growth factor-stimulated (CK2 blockers), H-7 preliminary, not shown; for effect of growth factors on REC migration: growth factors 10 ng/mL each
Protocol: Migration assay. REC migration rates were examined in a wound healing assay, where cells migrate over time into the scrape wound in a monolayer. Briefly, cells were seeded in 24-well plates and allowed to reach confluence in growth medium. Prior to growth factor treatment, cells were serum-starved overnight in incomplete BREC medium with 0.5% FCS. All monolayers within an experiment were wounded with a single sterile wood stick of constant diameter, to ensure uniformity in the wound areas among different treatments. Wounded monolayers were then rinsed with low-serum medium to remove detached cells and treated with various combinations of human growth factors at 10 ng/mL each. On day 7, cells were rinsed 3× with PBS and fixed with methanol for 15 min, rehydrated with dH2O and stained with Meyer's hematoxylin for 5 min, followed by destaining with dH2O. All wells were photographed with a 4× or 10× objective using a Kodak MDS 100 digital camera attached to a Leitz DM IL inverted microscope. The original wound area was measured at 0 hr and used as a baseline for comparison to the treated wells at the conclusion of the experiment. The number of cells migrated into the wound was determined. Migrating cell counting was automated using the AAB (Advanced American Biotechnology, Fullerton, Calif.) software. Data were calculated and statistically analyzed (Spirin K S et al., Basement membrane and growth factor gene expression in normal and diabetic human retinas, Curr. Eye Res. 18:490–499 [1999]) relative to control cultures that received the same concentrations of bovine serum albumin instead of growth factors and/or inhibitor, compared to vehicle instead of inhibitor after wounding. Inhibitors were added 30 min before growth factors.

[7] = system: bovine REC; assay: REC survival assay (MTS, low serum); assay type: cell-based; conditions: for effect of growth factors on REC survival: growth factors 10 ng/mL each
Protocol: as §1

[8] = system: human REC; assay: Gene array analysis of growth factor action on normal and DR REC; assay type: cell-based; conditions: 10 ng/mL, 7 days, 0.5% serum
Protocol: Normal REC and DR REC gene expression patterns were compared by gene array analysis. Normal, diabetic and DR autopsy human eyes are obtained from National Disease Research Interchange (NDRI), within 24 hours after death. These eyes are used to isolate REC for culture as described hereinabove. Cultures can be used up to the fourth passage, and viable cultures can be cryogenically stored. Cultures of normal, diabetic and DR REC are established from autopsy human eyes and routinely checked for purity using von Willebrand factor immunostaining as described hereinabove. Cells are cultured in 50% F-12, 50% low-glucose DMEM with antibiotics/antimycotics (GIBCO/BRL), insulin-transferrin-selenite, ECGS (Sigma Chemical Co.), and 20% FCS. Statistical analysis of results is done with GraphPad Prism software (GraphPad Software).
In experiments, normal, diabetic, and DR REC were grown for seven days with or without 10 ng/ml VEGF, or 10 ng/mL IGF-I, or 10 ng/mL each VEGF and IGF-I, in medium with 0.5% serum. Long-term rather than short-term treatment was chosen because diabetes develops over a considerable time period. RNA isolated from REC was reverse-transcribed using Smart™ cDNA synthesis method (Clontech), to produce full-length cDNA. Two normal cases or two DR cases were pooled together. This cDNA was PCR-amplified with a short number of cycles and used as a probe for Clontech Atlas Human 1.2 1,200-gene arrays, according to the manufacturer's instructions. This technique had previously been refined and verified by Northern analysis and fully correlated gene array data with protein expression. (Spirin K S et al., Analysis of gene expression in human bullous keratopathy corneas containing limiting amounts of RNA, Invest. Ophthalmol. Vis. Sci. 40:3108–3115 [1999]). Samples were normalized to several housekeeping genes and the analysis was done with available AtlasImage 2.0 software (Clontech). Signal ratio >2 between samples was considered significant as per manufacturer's recommendation.

For `Cc1c2oc3c(C)ccc(C(=O)N[C@@H]4C(=O)N[C@H](C(C)C)C(=O)N5CCC[C@H]5C(=O)N(C)CC(=O)N(C)[C@@H](C(C)C)C(=O)O[C@@H]4C)c3nc-2c(C(=O)N[C@@H]2C(=O)N[C@H](C(C)C)C(=O)N3CCC[C@H]3C(=O)N(C)CC(=O)N(C)[C@@H](C(C)C)C(=O)O[C@@H]2C)c(N)c1=O` [Actinomycin D] (I: T[dV]P[Sar][NMeV] / II: T[dV]P[Sar][NMeV]; ester I:1-I:C, II:1-II:C; linker I:N-II:N via Actinocin(9to1)), the “effect of inhibitors in angiogenic assays” value [1] was “only minor changes”.
With `OC[C@H]1O[C@@H](n2cnc3cc(Cl)c(Cl)cc32)[C@H](O)[C@@H]1O` [DRB, 5,6-dichloro-1-β-D-ribofuranosylbenzimidazole] the “effect of kinase inhibitors on proliferation” value [2] was “potently inhibited”, the “number of live cells, proliferation” value ([2]; bovine REC, 10% serum, various concentrations, day 6, MTS) was “significantly lowers cell number” and the “diminution of retinal neovascularization (preretinal nuclei count)” value ([3]; two intraperitoneal injections daily, day 11 to 17 after birth, emodin 20–30 μg/g, vs untreated or vehicle) was “about 60%”. The “effect of kinase inhibitors on secondary sprouting” value [4] was “potently inhibited”, the “concentration from which live cell number in secondary sprouting is significantly decreased” value ([4]; bovine REC on MATRIGEL, 0.5% serum, day 9, MTS) was no less than 25 µM and the “effect of kinase inhibitors on tube formation” value [5] was “potently inhibited”. The “effect of kinase inhibitors on migration” value [6] was “potently inhibited”, the “effect on growth factor-mediated cell migration” value ([6]; four GFs 10 ng/ml each, 7 days, 0.5% serum, emodin 10 μM, DRB 15 μM) was “significant inhibitory effect” and the “number of live cells, survival” value ([7]; bovine REC, 0.5% serum, various concentrations, day 6, MTS) was “significantly lowers cell number”.
For `CC1CNCCN1S(=O)(=O)c1cccc2cnccc12` (centres unmarked) [H-7], the “effect of kinase inhibitors on proliferation” value [2] was “inhibited”, the “effect of kinase inhibitors on secondary sprouting” value [4] was “inhibited” and the “effect of kinase inhibitors on tube formation” value [5] was “stabilized REC tubes”. For the same compound, the “effect of kinase inhibitors on migration” value [6] was “inhibited”.
With `O=c1c(O)c(-c2ccc(O)c(O)c2)oc2cc(O)cc(O)c12` [quercetin] the “effect of kinase inhibitors on proliferation” value [2] was “potently inhibited”, the “effect on retinal neovascularization” value ([3]; intramuscular injections, data not shown) was “substantial effect” and the “effect of kinase inhibitors on secondary sprouting” value [4] was “potently inhibited”. For the same compound, the “effect of kinase inhibitors on tube formation” value [5] was “potently inhibited” and the “effect of kinase inhibitors on migration” value [6] was “potently inhibited”.
“FGF-2: fibroblast growth factor (FGF)-2, angiogenic growth factor” was tested, and the “morphology of sprouting colonies after growth factor treatment” value ([4]; 10 ng/mL) was “longer and sparser sprouts”, the “effect of growth factors on secondary sprouting (live cell number)” value ([4]; 10 ng/mL, 0.5% FCS medium) was “potently stimulated; also recorded: pro-angiogenic; also recorded: dramatic increase; also recorded: greatly enhanced” and the “stimulation of secondary sprouting (fold, on average)” value ([4]; growth factors, live cells by MTS) was “four-fold”. For the same compound, the “effect of growth factors on tube formation” value ([5]; growth factors 10 ng/mL each) was “little or no effect” and the “effect of growth factors on REC migration” value (“effect … on REC migration” below) [6] was “little or no effect”.
In the case of “IGF-I: insulin-like growth factor (IGF)-I”, the “expression of pro-apoptotic genes” value [8] is reported as “decrease”, the “effect … on REC migration” value [6] is reported as “the opposite” and the “effect of growth factors on REC survival” value [7] is reported as “the opposite”.
VEGF was tested, and the “expression of pro-apoptotic genes” value [8] was “did not display an increase”, the “expression of proliferation-related genes” value [8] was “upregulated” and the “expression of various phosphatases” value [8] was “downregulated”. For the same compound, the “effect … on REC migration” value [6] was “significantly enhanced” and the “effect of growth factors on REC survival” value [7] was “little effect”.
